Test [1] relates to DLD1 wt cells. The test can be described thus: 6-day cytotoxicity assay of warheads. The format is cell-based. The following applies: wild-type cells. The source says:
(§1) MMAE=negative control, microtubule-inhibitor warhead.
(§2) Additionally, HR-deficiency increases sensitivity to the SG3932 warhead. […] Cell viability was reduced in both wild-type and BRCA2−/− cells when treated with the MMAE warhead.

For test [2], the system named is DLD1 BRCA2−/− cells. In words: 6-day cytotoxicity assay of warheads. The format is cell-based.
Text: as §1, §2

Non-standard residues stand in square brackets, D forms with d. Residues, ends and D or L forms follow the SMILES beside them. *: point of attachment. Dolaproine = CO[C@@H]([C@@H]1CCCN1)[C@@H](C)C(=O)O; Dil = CC[C@H](C)[C@H](NC)[C@@H](CC(=O)O)OC; X1 = C[C@@H](N*)[C@@H](O)c1ccccc1; NMeV = CN[C@H](C(=O)O)C(C)C

As for `CC[C@H](C)[C@@H]([C@@H](CC(=O)N1CCC[C@H]1[C@H](OC)[C@@H](C)C(=O)N[C@H](C)[C@@H](O)c1ccccc1)OC)N(C)C(=O)[C@@H](NC(=O)[C@@H](NC)C(C)C)C(C)C` [MMAE] (H-[NMeV]V[Dil][Dolaproine]-X1), the cell viability result in test [1] and in test [2] was “reduced” in each case.

The record behind these values is patent publication US20240239894A1, “THERAPEUTIC BINDING MOLECULES” (MedImmune Limited, priority 2020, published 2024).
